Where “and” joins values, the source holds several entries; their conditions need not be identical. Identical values can stand only once. Like-named read-outs stand apart in the source and are kept apart here.
Experiments:
Type in all cases: cell-based
Aspergillus parasiticus = experiment: Fungicidal bioassay on nongerminated and germinating conidia of A. parasiticus; conditions: for activity at 5 µM / activity at 10 µM / activity at 15 µM / activity at 20 µM / minimal effective concentration: Aspergillus parasiticus, 0.5 h; for activity at 5 µM / activity at 10 µM / activity at 15 µM / activity at 20 µM: read-out: Percent of Mean Control; for viability reduction: 20.0 μM (24.8 μg/ml)
Experimental: (§1) 1. Filamentous fungi. Filamentous fungi used in bioassays included Aspergillus flavus, A. fumigatus, A. niger, A. parasiticus and Fusarium oxysporum. The fungicidal properties of CAY-1 for the nongerminated and germinating conidia of these fungi were determined separately as described by De Lucca et al. [Med. Mycol., 36:291-298 (1998)] and De Lucca et al. [Antimicrob. Agents Chemother. 43:371-373 (1999)]. […] Two separate experiments were conducted in each medium (n=8 per medium).
(§2) A suspension of the aforementioned fungi were prepared separately in the appropriate medium. Conidia (10^4 conidia/ml) were used immediately for the nongerminated conidial assays while conidia (10^5 conidia/ml) were incubated for 7.5 hours at 30° C. to obtain germinating conidia. Serial dilutions of CAY-1 were prepared in the appropriate medium (totaling 225 μl) to which was added 25 μl of the conidial suspensions. The control consisted of 225 μl of medium and 25 μl of the conidial suspension. After mixing, the samples were incubated for 30 min (30° C.). Samples were then spread on potato dextrose agar plates which were incubated at 30° C. for 24 hours. Colonies were then enumerated.
(§3) Statistical analyses. ANOVA analyses on ranks for nonparametric data were performed for the bioassays described in this example.

Fusarium oxysporum = experiment: Fungicidal bioassay on nongerminated and germinating conidia of F. oxysporum
Experimental: as §1, §2, §3

[1] = tested on: Bacillus subtilis ATCC 6051; experiment: Bacterial lethality; conditions: 0.5-10 μM; 37° C., 24 hrs
Experimental: (§4) 5. Bacteria. CAY-1 lethality to Escherichia coli ATCC 8739, Enterobacter agglomerans ATCC 27996, Bacillus subtilis ATCC 6051 and Staphylococcus aureus ATCC 12600 was determined by methods described earlier (De Lucca et al., Mol. cell Biochem., 1995, 151:141-148). Briefly, 24 hr bacterial cultures were washed and resuspended in 0.1 M PBS, pH 7.2, amended with 0.15 mM MgCl2 and 0.5 mM CaCl2 and adjusted to 80% transmittance (approximately 10^8 cells/ml) at 590 nm. Bacterial suspensions were mixed with PBS and CAY-1 (final concentrations: 0, 0.5, 1, 2, 4, 8, 10 μM) in sterile 96-well plates (Nunc, Roskilde, Denmark) and incubated (37° C., 24 hrs). Bioassays were performed twice for each bacteria (n=8).

[2] = tested on: Enterobacter agglomerans ATCC 27996; experiment: Bacterial lethality; conditions: 0.5-10 μM; 37° C., 24 hrs
Experimental: as §4

[3] = tested on: Staphylococcus aureus ATCC 12600; experiment: Bacterial lethality; conditions: 0.5-10 μM; 37° C., 24 hrs
Experimental: as §4

[4] = tested on: Escherichia coli ATCC 8739; experiment: Bacterial lethality; conditions: 0.5-10 μM; 37° C., 24 hrs
Experimental: as §4

Aspergillus fumigatus = experiment: Fungicidal bioassay on nongerminated and germinating conidia of A. fumigatus; conditions: Aspergillus fumigatus, 0.5 h, germinating, read-out: Percent of Mean Control
Experimental: as §1, §2, §3

[5] = nongerminated, RPMI-1640, 5.0 μM
[6] = nongerminated, RPMI-1640, 10.0 μM
[7] = nongerminated, RPMI-1640, 15.0 μM
[8] = nongerminated, RPMI-1640, 20.0 μM

## CC1CCC2(OC1)OC1CC3C4CCC5CC(OC6OC(CO)C(OC7OC(CO)C(O)C(OC8OC(CO)C(O)C(OC9OC(CO)C(O)C(O)C9O)C8O)C7OC7OC(CO)C(O)C(O)C7O)C(O)C6O)C(O)CC5(C)C4CCC3(C)C1C2C (stereo not drawn) [CAY-1]
Aspergillus parasiticus; germinated, RPMI-1640, 5.0 μM
  activity at 5 µM: 56.6%
  Mean No. of Colonies: 40.1
Aspergillus parasiticus; germinated, RPMI-1640, 10.0 μM
  activity at 10 µM: 17.5%
  Mean No. of Colonies: 12.4
Aspergillus parasiticus; germinated, RPMI-1640, 15.0 μM
  activity at 15 µM: 12.7%
  Mean No. of Colonies: 9.0
Aspergillus parasiticus; germinated, RPMI-1640, 20.0 μM
  activity at 20 µM: 8.1%
  Mean No. of Colonies: 5.7
Aspergillus parasiticus; germinating, 1% PDB, 5.0 μM
  activity at 5 µM: 61.9%
  Mean No. of Colonies: 95.5
Aspergillus parasiticus; germinating, 1% PDB, 10.0 μM
  activity at 10 µM: 28%
  Mean No. of Colonies: 43.3
Aspergillus parasiticus; germinating, 1% PDB, 15.0 μM
  activity at 15 µM: 21%
  Mean No. of Colonies: 32.5
Aspergillus parasiticus; germinating, 1% PDB, 20.0 μM
  activity at 20 µM: 16.5%
  Mean No. of Colonies: 25.5
Aspergillus parasiticus; nongerminated, 1% PDB, 5.0 μM
  activity at 5 µM: 97.3%
  Mean No. of Colonies: 53.1
Aspergillus parasiticus; nongerminated, 1% PDB, 10.0 μM
  activity at 10 µM: 100%
  Mean No. of Colonies: 54.6
Aspergillus parasiticus; nongerminated, 1% PDB, 15.0 μM
  activity at 15 µM: 93.9%
  Mean No. of Colonies: 51.3
Aspergillus parasiticus; nongerminated, 1% PDB, 20.0 μM
  activity at 20 µM: 94.5%
  Mean No. of Colonies: 51.9
Aspergillus parasiticus; [5]
  activity at 5 µM: 103%
  Mean No. of Colonies: 42.5
Aspergillus parasiticus; [6]
  activity at 10 µM: 103%
  Mean No. of Colonies: 42.5
Aspergillus parasiticus; [7]
  activity at 15 µM: 87.9%
  Mean No. of Colonies: 36.4
Aspergillus parasiticus; [8]
  activity at 20 µM: 97.6%
  Mean No. of Colonies: 40.4
Aspergillus parasiticus; read-out: concentration required for significant viability reduction
  minimal effective concentration: 12.4 µg/mL
Aspergillus parasiticus; germinating conidia, 1% PDB, p=0.001, read-out: concentration significantly reducing viability
  minimal effective concentration: 5 µM and 6.2 µg/mL
Aspergillus parasiticus; germinating conidia, RPMI-1640, p=0.0002, read-out: concentration required for significant viability reduction
  minimal effective concentration: 10 µM
Aspergillus parasiticus; germinating conidia, 1% PDB
  viability reduction: 85%
Aspergillus parasiticus; germinating conidia, RPMI-1640
  viability reduction: 92%
Aspergillus parasiticus; nongerminated conidia, either test medium
  viability of nongerminated conidia: not affected
Fusarium oxysporum
  activity against conidia: not active
[1]
  lethality to bacteria: not effective
[2]
  lethality to bacteria: not effective
[3]
  lethality to bacteria: not effective
[4]
  lethality to bacteria: not effective
Aspergillus fumigatus; 1% PDB, 2.0 μM
  activity at 2 µM: 96.1%
Aspergillus fumigatus; 1% PDB, 3.0 μM
  activity at 3 µM: 49.9%
Aspergillus fumigatus; 1% PDB, 4.0 μM
  activity at 4 µM: 14.4%
Aspergillus fumigatus; 1% PDB, 5.0 μM
  activity at 5 µM: 6.1%
Aspergillus fumigatus; 1% PDB, 7.5 μM
  activity at 7.5 µM: 2.8%
Aspergillus fumigatus; 1% PDB, 10.0 μM
  activity at 10 µM: 0.2%
Aspergillus fumigatus; RPMI-1640, 0.5 μM
  activity at 0.5 µM: 92.4%
Aspergillus fumigatus; RPMI-1640, 1.0 μM
  activity at 1 µM: 105%

— patent US6310091A, “Fungicidal saponin, CAY-1, and isolation thereof from Capsium species fruit” (The United States of America as represented by the …, priority 2000, dated 2001)
